# Measured values reported in patent publication US12398115B2, “Chrysophaentin analogs and use thereof” (Vanderbilt University, priority 2019, dated 2025).
# Entries after “also recorded” stand apart in the source; their conditions may differ. Read-outs that look alike come from different tables or passages of the source.
# Assays:
# [1] = tested on: FtsZ/FtsA/PBP2B localization in B. subtilis; test: Imaging of fluorescently labeled FtsZ, FtsA and PBP2B (mNeonGreen); format: cell-based, Bacillus subtilis; conditions: for localization of fluorescently labeled FtsZ (mNeonG): 10 μM (5×MIC), high-resolution microscopy; for localization of FtsZ: B. Subtilis, concentration not given; for localization of FtsZ, FtsA and PBP2B: B. subtilis, FIG. 7D
# Procedure: B. subtilis strains with fluorescent protein fusion were made (FtsZ-mNeonGreen: bAB185, FtsA-mNeonGreen: bAB167, PBP2B-mNeonGreen: bAB109). Exponentially growing cells for the experiments were prepared as described above. Antibiotic stock solutions were added to 0.3 ml exponentially growing cell cultures to a final concentration of 5×MIC. The cells were incubated at 37° C. for 5 minutes and then immediately imaged using the Ti-E microscope without fixation. mNeonGreen signal was detected using FITC filter set (Excitation 470/24 nm; emission 510/40 nm). Image processing was performed in ImageJ. Images were scaled without interpolation, cropped and rotated. Linear adjustment was performed to optimize contrast and brightness of the images. All the images from the same experiment were processed in the same way in order to ensure fair comparison.
# [2] = tested on: Enterococcus faecalis (ATCC 29212); test: Minimum inhibitory concentration, broth microdilution (CLSI); format: cell-based; conditions: for MIC50: Enterococcus faecalis, ATCC29212, read-out: MIC50 E. Faecalis
# Excerpt: (§1) Chemicals-FtsZ inhibitor PC190723 and ampicllin were purchased from Millipore Sigma Aldrich (St. Louis, MO). Chrysophaentin A was obtained from a 2017 collection of the marine alga C. taylorii collected in the U.S. Virgin Islands (Permit VIIS-2017-SCI-0034) and isolated as described previously. All bacterial strains used for drug susceptibility testing were obtained from the American Type Culture Collection (Manassas, VA) and included Escherichia coli (ATCC 25922), Enterococcus faecalis (ATCC 29212), vancomycin-resistant E. faecalis (VRE, ATCC 51299), Staphylococcus aureus (ATCC 25913), and methicillin-resistant S. aureus (MRSA, ATCC 43300). Strains were maintained on agar slants at 4° C. and sub-cultured on fresh agar plates containing ATCC-recommended media. Strains were cultured in liquid media 16 h prior to any antimicrobial screen. BD BBL™ Mueller-Hinton II broth (Fisher Scientific, Hampton NH) was used for MIC determinations.
# (§2) MICs for all compounds were determined using the CLSI guidelines on the test strains. Solutions of each compound were prepared by dissolution in DMSO (Sigma Aldrich, St. Louis MO) at a concentration of 10-20 mg mL^−1. […] Stock solutions were added to Mueller-Hinton II broth and serial two-fold dilutions were prepared in a 96-well microtiter plate (50 μL per well). Fifty microliters (50 μL) of inoculum containing 1×10^6 CFU mL^−1 for E. coli, S. aureus, or MRSA, or 2×10^6 CFU mL^−1 for E. faecalis or VRE were added to the wells. Plates were covered with a sterile membrane, placed in a plate reader, and agitated for 2 min to mix the contents of the wells. Plates were incubated at 37° C. for 16 h. Wells containing 4% DMSO or gentamycin served as negative and positive controls. […] Each assay was performed in triplicate and two independent experiments were carried out on separate days.
# [3] = tested on: Bacillus subtilis (PY79 WT); test: Cell lengthening assay; format: cell-based; conditions: for cell lengthening: B. Subtilis; for cell lengthening phenotype: B. subtilis, FIG. 7A, concentration not given
# Procedure: Bacillus subtilis (PY79 WT, lab stock) were inoculated from an overnight plate culture (single colony) to 3 ml LB in 15 ml culture tubes. The cultures were incubated in a 37° C. shaker until OD600 reached 0.2. The cultures were then diluted with fresh LB to OD600 0.05, followed by another round of incubation to OD600 0.2. At this point, cells have reached exponentially growing states and were used for experiments. […] The cultures were incubated at a 37° C. shaker for 40 minutes, followed by direct addition of 0.7 ml 100% ethanol (70% final ethanol concentration) and then incubation on ice-bath for 1 hour. The fixed cells were imaged using a Nikon Ti-E inverted microscope equipped with a 1.4NA Plan Apo 60X oil objective and Andor iXon EMCCD camera. Cell images were captured under phase-to-contrast channel. Cell length was analyzed using ImageJ and MicrobeJ plug-in.
# [4] = tested on: B. subtilis (PY79 WT) peptidoglycan synthesis; test: HADA (FDAA) incorporation microscopy assay, peptidoglycan synthesis; format: cell-based, Bacillus subtilis; conditions: for inhibition of peptidoglycan synthesis (FDAA incorporation): B. subtilis, FIGS. 7B and 7C
# Procedure: HADA was synthesized according to the reported protocols. Exponentially growing B. subtilis (PY79 WT) cells for the experiments were prepared as described above. […] After a 5-minute incubation at 37° C., HADA stock solution (100 mM) was directly added to the cultures to a final concentration of 0.5 mM. The cultures were then incubated in a 37° C. shaker for 30 minutes. Cell fixation was then carried out by directly adding 0.7 ml 100% ethanol to the cultures, following 1-hour incubation on ice-bath. The fixed cells were collected using centrifuge (9000 g, 3 minutes), washed with 1×PBS twice, and then resuspended into 1×PBS. The cells were imaged using Nikon Ti-E microscope. HADA signal was detected using DAPI filter set (Excitation 395/25 nm; emission 435/26 nm). HADA intensity was analyzed using ImageJ and MicrobeJ plug-in.
# [5] = tested on: VRE, vancomycin-resistant E. faecalis (ATCC 51299); test: Minimum inhibitory concentration, broth microdilution (CLSI); format: cell-based, Enterococcus faecalis; conditions: for MIC50: Enterococcus
# Excerpt: as §1, §2
# B. Subtilis [6] = test: Minimum inhibitory concentration; format: cell-based; conditions: Bacillus subtilis; read-out: MIC50 B. Subtifis
# [7] = tested on: MRSA, methicillin-resistant S. aureus (ATCC 43300); test: Minimum inhibitory concentration, broth microdilution (CLSI); format: cell-based, Staphylococcus aureus; conditions: for MIC50: Staphylococcus aureus
# Excerpt: as §1, §2
# S. aureus (ATCC 25913) = test: as above; format: cell-based, Staphylococcus aureus; conditions: for MIC50: Staphylococcus aureus, ATCC25913
# Excerpt: as §1, §2
# Gram-positive pathogens = test: Comparison of bacterial growth inhibition across panel; format: cell-based; conditions: for potency in inhibiting bacterial growth relative to natural C-ring isomers VU0849855 and VU0848355: FIGS. 5A-5C
# Procedure: as §2
# The bacterial growth inhibition of synthetic 9-dechlorochrysophaentins compared favorably to chrysophaentin A when evaluated across a panel of Gram-positive pathogens (Table 1).
# [8] = tested on: gram-positive bacteria, such as MRSA; conditions: against gram-positive bacteria; cited from earlier work
# S. aureus FtsZ = target: T1, S. aureus FtsZ (Staphylococcus aureus, UniProt P0A031); test: Biochemical GTPase-FtsZ inhibition assay
# T1 sequence (P0A031 1-390): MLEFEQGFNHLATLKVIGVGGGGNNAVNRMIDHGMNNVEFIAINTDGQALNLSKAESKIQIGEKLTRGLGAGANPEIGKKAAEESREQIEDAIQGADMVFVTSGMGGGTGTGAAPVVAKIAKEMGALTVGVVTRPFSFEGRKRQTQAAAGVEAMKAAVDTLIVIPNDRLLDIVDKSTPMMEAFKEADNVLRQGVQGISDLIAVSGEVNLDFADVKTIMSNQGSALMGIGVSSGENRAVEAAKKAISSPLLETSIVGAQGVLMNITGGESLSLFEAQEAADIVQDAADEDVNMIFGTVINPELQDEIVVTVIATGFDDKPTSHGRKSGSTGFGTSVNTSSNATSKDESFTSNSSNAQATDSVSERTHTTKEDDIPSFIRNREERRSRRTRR
# Procedure: (§3) VU0848355 and VU0848354 were evaluated for growth inhibition against S. aureus and inhibition of GTPase activity against S. aureus FtsZ using a biochemical assay (FIGS. 6A-6C).
# B. Subtilis [9] = test: Time-lapse microscopy of FtsZ motion; format: cell-based, Bacillus subtilis; conditions: 5×MIC
# Procedure: Time-lapse microscopy was employed to monitor the dynamics of FtsZ motion before and after treatment by these compounds. FtsZ movement drives the septal peptidoglycan synthesis machinery in B. subtilis. The movement is carried out by a “treadmilling process” where FtsZ monomer polymerizes at one end and disassembles at the other. FtsZ polymerization is triggered by binding to GTP while its disassembly is catalyzed by GTP hydrolysis to GDP.
# S. aureus ATCC 25293 [10] = test: Microbroth dilution growth inhibition; format: cell-based; conditions: Staphylococcus aureus, ATCC25293; S. aureus ATCC 25293, microbroth dilution
# Procedure: as §3
# S. aureus ATCC 25293 [11] = test: Agar diffusion assay; format: cell-based, Staphylococcus aureus
# Procedure: as §3
compound,measurement,setting,value
"Oc1cc(O)c2c(c1)C/C=C\Cc1cc(c(Cl)cc1O)Oc1c(O)cc(cc1O)C/C(Cl)=C\Cc1cc(c(Cl)cc1O)O2 [VU0849855, 9-dechlorochrysophaentin A]",localization of fluorescently labeled FtsZ (mNeonG),[1],complete disassociation of FtsZ
same,localization of FtsZ,[1],lead to dislocation of FtsZ
same,MIC50,[2],2.5 µg/mL
same,cell lengthening,[3]; up to 20 μM (10×MIC),did not affect cell lengthening
same,inhibition of FDAA incorporation,[4]; 10 μM (5×MIC),inhibited incorporation of FDAAs
same,MIC50,[5],5 µg/mL
same,MIC50,B. Subtilis [6],4 µg/mL
same,MIC50,[7],2.5 µg/mL
same,MIC50,S. aureus (ATCC 25913),2.5 µg/mL
"Oc1cc(O)c2c(c1)C/C=C\Cc1cc(c(Cl)cc1O)Oc1c(O)cc(cc1O)C/C(Cl)=C\Cc1c(O)ccc(c1Cl)O2 [VU0849838, iso-9-dechlorochrysophaentin A]",localization of fluorescently labeled FtsZ (mNeonG),[1],complete disassociation of FtsZ
same,localization of FtsZ,[1],lead to dislocation of FtsZ
same,MIC50,[2],0.3 µg/mL
same,cell lengthening,[3]; up to 20 μM (10×MIC),did not affect cell lengthening
same,inhibition of FDAA incorporation,[4]; 10 μM (5×MIC),inhibited incorporation of FDAAs
same,MIC50,[5],2.2 µg/mL
same,MIC50,B. Subtilis [6],2 µg/mL
same,MIC50,[7],1.1 µg/mL
same,MIC50,S. aureus (ATCC 25913),1.1 µg/mL
same,potency in inhibiting bacterial growth relative to natural C-ring isomers VU0849855 and VU0848355,Gram-positive pathogens,approximately two-fold
same,growth inhibition (MIC) relative to natural chrysophaentin A,"Gram-positive pathogens; S. aureus, MRSA and E. faecalis",approximately two-fold
"CC1(C)S[C@@H]2[C@H](NC(=O)[C@H](N)c3ccccc3)C(=O)N2[C@H]1C(=O)O [Ampicillin, ampicillin, reference compound]",inhibition of peptidoglycan synthesis (FDAA incorporation),[4],inhibit peptidoglycan synthesis
"NC(=O)c1c(F)ccc(OCc2nc3cc(Cl)cnc3s2)c1F [PC190723, reference compound]",localization of FtsZ,[1],dislocation but retention of FtsZ
same,cell lengthening,[3]; 5 μg/mL (10×MIC),Cell lengthening was observed
same,cell lengthening phenotype,[3],produces the expected cell lengthening phenotype
same,cell lengthening phenotype,[3]; listed as PC1907723,leads to expected cell lengthening
same,inhibition of peptidoglycan synthesis (FDAA incorporation),[4],does not
same,inhibition of FDAA incorporation,[4]; up to 10×MIC,minimal inhibition of FDAAs incorporation
chrysophaentin A [reference compound],localization of FtsZ,[1],leads to dispersion of FtsZ; also recorded: replicated the FtsZ dispersion phenotype
same,"localization of FtsZ, FtsA and PBP2B",[1],led to dispersion of the septal peptidoglycan synthesis machinery
same,MIC50 E. Faecalis,[2],2 µg/mL
same,MIC50 VRE,[5],2 µg/mL
same,MIC50 MRSA,[7],2 µg/mL
same,MIC50 S. Aureus,S. aureus (ATCC 25913),2 µg/mL
same,MIC50,[8],1 to 4 µM
COc1cc2cc(OC)c1Oc1cc(c(O)cc1Cl)C/C=C\Cc1cc(O)cc(O)c1Oc1ccc(O)c(c1Cl)C/C=C(/Cl)C2 [VU0848354],"localization of FtsZ, FtsA and PBP2B",[1],"displace FtsZ/A and penicillin binding protein PBP2B; also recorded: unique dispersion of FtsZ, FtsA and PBP2B"
same,IC50,"S. aureus FtsZ; S. aureus FtsZ biochemical assay, read-out: IC50 GTPase-FtsZ inhibition",> 250 µM
same,cell elongation,B. Subtilis [9],did not elongate
same,IC50,S. aureus ATCC 25293 [10],< 1 µM
same,cell lengthening phenotype,[3],neither VU0848355 and VU0848354 replicates the cell lengthening phenotype
same,inhibition of peptidoglycan synthesis (FDAA incorporation),[4],inhibit peptidoglycan synthesis; also recorded: inhibited both lateral and septal peptidoglycan synthesis
same,"growth inhibition, agar diffusion",S. aureus ATCC 25293 [11],inhibited growth of S. aureus
same,potency in inhibiting bacterial growth relative to natural C-ring isomers VU0849855 and VU0848355,Gram-positive pathogens,approximately two-fold
COc1cc2cc(OC)c1Oc1cc(c(O)cc1Cl)C/C=C\Cc1cc(O)cc(O)c1Oc1cc(c(O)cc1Cl)C/C=C(/Cl)C2 [VU0848355],"localization of FtsZ, FtsA and PBP2B",[1],"displace FtsZ/A and penicillin binding protein PBP2B; also recorded: unique dispersion of FtsZ, FtsA and PBP2B"
same,IC50,S. aureus FtsZ,> 250 µM
same,IC50,S. aureus ATCC 25293 [10],< 1 µM
same,cell lengthening phenotype,[3],neither VU0848355 and VU0848354 replicates the cell lengthening phenotype
same,inhibition of peptidoglycan synthesis (FDAA incorporation),[4],inhibit peptidoglycan synthesis; also recorded: inhibited both lateral and septal peptidoglycan synthesis
same,"growth inhibition, agar diffusion",S. aureus ATCC 25293 [11],inhibited growth of S. aureus
